Test results reported in patent US20160221974A1, “SODIUM CHANNEL MODULATORS FOR THE TREATMENT OF PAIN AND DIABETES” (CHROMOCELL CORPORATION, priority 2013, published 2016).
Where “and” joins values, the source holds several entries; their conditions need not be identical. Equal entries are not always repeated.

What was measured:
[1] = tested on: streptozotocin (STZ)-induced diabetic model; assay: Streptozotocin (STZ)-Induced Model of Diabetic Neuropathy, behavioral tests; type: in vivo, male Sprague-Dawley rats; conditions: 30 mg/kg, measured 30 minutes post dose
Procedure: 250-350 g male Sprague-Dawley rats from appropriate animal resources were used. Type I diabetes was induced by a single injection, (intraperitoneally, intravenously or intramuscularly) of 50-100 mg/kg of streptozotocin (STZ, Sigma Chemicals, St. Louis, Mo. or VWR) freshly dissolved in sodium citrate (0.01 M, pH 4.5). Sham animals were given either saline or same vehicle injection. Following a wait time of about two days, inducement of diabetes was confirmed in STZ-injected rats by measuring the plasma glucose concentrations in blood samples from the tail vein after a fast of 6 hours. […] Other parameters (water intake, food intake, and bodyweight) were monitored before the treatment with a test compound and after the cessation of the treatment.
The analgesic effect of the test compound was expressed as a percent recovery (% Recovery) relative to the sham control group baseline and calculated according to the formula: […]
(§1) Rats were placed on the glass surface of a thermal testing apparatus (Model 336, IITC/Life Science Instruments, Woodland Hills, Calif.) and were allowed to acclimate for 10 min before testing on the glass surface at room temperature. […] The paw withdrawal latency was recorded by a digital timer. The thermal threshold was determined as the mean withdrawal latency from two to three consecutive trials of both hindpaws. […]

hNaV1.7 = target: T1, hNaV1.7 (Homo sapiens, UniProt Q15858); assay: FDSS Membrane Potential In-Vitro Assay; type: cell-based; conditions: stimulation with veratridine and scorpion venom, read-out: NaV1.7 IC50
T1 construct: expressed in transfected cells
T1 sequence (Q15858 whole entry): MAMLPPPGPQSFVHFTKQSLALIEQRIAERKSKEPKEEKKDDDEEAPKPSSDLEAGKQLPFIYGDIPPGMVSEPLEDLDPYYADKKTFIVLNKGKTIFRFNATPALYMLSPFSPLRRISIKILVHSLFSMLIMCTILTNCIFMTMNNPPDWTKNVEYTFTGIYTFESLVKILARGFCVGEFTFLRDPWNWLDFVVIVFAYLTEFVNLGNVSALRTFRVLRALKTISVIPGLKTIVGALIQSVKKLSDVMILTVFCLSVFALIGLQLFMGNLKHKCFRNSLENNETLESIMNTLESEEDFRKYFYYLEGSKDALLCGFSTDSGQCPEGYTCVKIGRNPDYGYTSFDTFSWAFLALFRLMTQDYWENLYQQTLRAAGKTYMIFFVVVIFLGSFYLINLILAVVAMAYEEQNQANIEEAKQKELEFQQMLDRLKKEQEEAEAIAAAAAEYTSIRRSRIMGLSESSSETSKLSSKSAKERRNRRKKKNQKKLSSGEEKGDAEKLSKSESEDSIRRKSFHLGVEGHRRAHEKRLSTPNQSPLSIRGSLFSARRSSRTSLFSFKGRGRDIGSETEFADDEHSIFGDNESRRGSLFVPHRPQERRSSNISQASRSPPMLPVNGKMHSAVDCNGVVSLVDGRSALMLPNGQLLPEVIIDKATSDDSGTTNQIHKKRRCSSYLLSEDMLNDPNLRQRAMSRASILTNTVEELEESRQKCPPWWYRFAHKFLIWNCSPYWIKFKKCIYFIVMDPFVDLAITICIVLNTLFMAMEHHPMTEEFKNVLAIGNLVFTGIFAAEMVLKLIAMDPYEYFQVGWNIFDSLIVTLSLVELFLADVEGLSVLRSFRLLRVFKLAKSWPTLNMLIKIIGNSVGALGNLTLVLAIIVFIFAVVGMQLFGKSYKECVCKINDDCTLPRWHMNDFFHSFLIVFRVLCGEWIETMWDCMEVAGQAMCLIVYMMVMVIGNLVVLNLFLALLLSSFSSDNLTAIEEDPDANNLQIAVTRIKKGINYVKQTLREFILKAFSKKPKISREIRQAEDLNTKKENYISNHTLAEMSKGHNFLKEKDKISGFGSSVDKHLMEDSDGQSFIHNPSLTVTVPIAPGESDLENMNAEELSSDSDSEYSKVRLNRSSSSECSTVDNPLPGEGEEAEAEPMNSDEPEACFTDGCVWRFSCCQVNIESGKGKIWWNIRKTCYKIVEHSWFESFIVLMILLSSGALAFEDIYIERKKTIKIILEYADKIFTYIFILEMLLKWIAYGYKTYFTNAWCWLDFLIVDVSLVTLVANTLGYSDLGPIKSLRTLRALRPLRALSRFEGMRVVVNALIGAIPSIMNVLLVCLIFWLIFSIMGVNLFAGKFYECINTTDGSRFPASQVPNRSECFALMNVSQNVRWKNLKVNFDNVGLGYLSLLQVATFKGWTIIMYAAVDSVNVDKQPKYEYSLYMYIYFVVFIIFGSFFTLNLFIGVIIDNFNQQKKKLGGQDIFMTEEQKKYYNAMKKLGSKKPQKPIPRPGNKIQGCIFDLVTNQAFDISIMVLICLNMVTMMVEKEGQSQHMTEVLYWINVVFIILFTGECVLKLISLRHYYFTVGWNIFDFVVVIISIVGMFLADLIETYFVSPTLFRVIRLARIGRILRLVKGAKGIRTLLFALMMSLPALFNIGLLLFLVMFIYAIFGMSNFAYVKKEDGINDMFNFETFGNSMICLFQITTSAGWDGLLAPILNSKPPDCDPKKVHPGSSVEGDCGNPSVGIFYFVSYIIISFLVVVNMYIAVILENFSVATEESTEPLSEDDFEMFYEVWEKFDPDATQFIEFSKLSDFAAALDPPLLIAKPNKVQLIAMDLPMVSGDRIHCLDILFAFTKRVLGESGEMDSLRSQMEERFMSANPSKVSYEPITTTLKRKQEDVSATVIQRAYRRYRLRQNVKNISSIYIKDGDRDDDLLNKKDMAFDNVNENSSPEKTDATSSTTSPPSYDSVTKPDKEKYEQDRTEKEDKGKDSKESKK
T1 sequence (Q07699 19-218 partner): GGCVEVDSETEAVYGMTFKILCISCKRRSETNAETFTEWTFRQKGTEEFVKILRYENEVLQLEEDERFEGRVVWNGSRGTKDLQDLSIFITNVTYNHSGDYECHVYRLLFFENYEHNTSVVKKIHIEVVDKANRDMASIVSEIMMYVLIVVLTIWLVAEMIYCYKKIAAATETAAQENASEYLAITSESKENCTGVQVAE
T1 sequence (O60939 30-215 partner): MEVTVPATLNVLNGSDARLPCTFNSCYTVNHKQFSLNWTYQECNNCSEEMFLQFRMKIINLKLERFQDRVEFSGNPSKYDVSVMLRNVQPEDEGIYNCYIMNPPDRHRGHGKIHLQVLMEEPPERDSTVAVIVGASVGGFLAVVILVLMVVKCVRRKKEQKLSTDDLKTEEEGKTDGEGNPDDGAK

[2] = tested on: Partial Sciatic Nerve Ligation (PSNL) model; assay: Partial Sciatic Nerve Ligation (PSNL) model, behavioral tests; type: in vivo, male Sprague-Dawley rats; conditions: oral route, relative to vehicle control, measured 30 minutes post dose
From the text: 250-350 g male Sprague-Dawley rats from appropriate animal resources were anesthetized with 2.5% isoflurane. A hind leg was shaved, and the skin was sterilized with 0.5% iodine and 75% alcohol. All surgical instruments were sterilized before surgery and between animals. An incision (1 cm) was made at the middle of the thigh in parallel with the muscle and sciatic nerve distribution. The muscle was exposed and dissected at the joint of two muscles (biceps femoris) indicated by the light colored (white) fascia line. The sciatic nerve was just beneath the muscle and was hooked out using an 18-20 G feeding needle (90 degree curved); the sciatic nerve was flat on the feeding needle and approximately one-half the diameter of the nerve is tightly ligated with 7-0 silk suture. A response of the injured leg twitch indicates the success of ligation. After checking hemostasis, bupivicaine 0.1-0.2 ml (0.125%) was given at the incision area, the muscle and the adjacent fascia are closed with 5-0 absorbable sutures. The skin was sutured with absorbable suture and tissue glue. The control group using sham surgery animals (about 8-10 animals) underwent the same surgical procedure but with no nerve ligation. Animals were returned to their home cage after recovery from anesthesia.
The analgesic effect of the test compound was expressed as a percent recovery (% Recovery) relative to the sham control group baseline and calculated according to the formula:
% Recovery=100%−{[(sham mean−test compound mean)/(sham mean−vehicle mean)]×100%}
wherein “sham mean” refers to average score in the sham-operated group; “test compound mean” refers to average score in the PSNL-group (animals with partial sciatic nerve ligation) or diabetic group (animals treated with STZ) treated with a test compound; “vehicle mean” refers to average score in the PSNL-group or diabetic group treated with vehicle only. The above formula was used to obtain data for the following in vivo behavioral tests.
The following behavioral tests were conducted (i.e., plantar test, paw pressure test, and von Frey test) started on day 3 and thereafter once weekly following surgery or use of a diabetic inducer. […]
as §1
Animals were placed under clear plastic boxes above a wire mesh floor, which allowed full access to the paws. […] Mechanical paw withdrawal thresholds (PWTs) were measured with the up-down testing paradigm. […]

SMILES: NC(=O)CNCCCc1cc(Cl)ccc1Oc1cc(F)c(S(=O)(=O)Nc2cscn2)cc1Cl [Compound 49, 2-((3-(5-chloro-2-(2-chloro-5-fluoro-4-(N-(thiazol-4-yl)sulfamoyl)phenoxy)phenyl)propyl)amino)acetamide]
- effect in the tactile allodynia test [1]: no significant effect
- IC50 (hNaV1.7): 100 to 500 nM and 500 to 1000 nM
- effect in the tactile allodynia test [2]: no significant effect
